The source made the active and inactive calls. No cut-off for these calls is given here. Where a SMILES comes first, the peptide text is derived from it.
Test system: Human alphaherpesvirus 1
Test: Antiviral activity against HSV-1 assessed as reduction in infectivity in African green monkey Vero cells after 2 hrs by virus yield reduction assay
Format: functional, organism-based

## CC[C@H](C)[C@H](NC(=O)CN)C(=O)N[C@@H](Cc1ccccc1)C(=O)N[C@@H](CO)C(=O)N[C@@H](CCCCN)C(=O)N[C@@H](CC(C)C)C(=O)N[C@@H](C)C(=O)NCC(=O)N[C@@H](CCCCN)C(=O)N[C@@H](CCCCN)C(=O)N[C@@H](CC(C)C)C(=O)N[C@@H](CCCCN)C(=O)N[C@@H](CC(N)=O)C(=O)N[C@@H](CC(C)C)C(=O)N[C@@H](CC(C)C)C(=O)N[C@H](C(=O)N[C@@H](CO)C(=O)NCC(N)=O)[C@@H](C)CC (H-GIFSKLAGKKLKNLLISG-NH2)
  Activity: inactive

— ChEMBL document CHEMBL3352622, “Folded structure and insertion depth of the frog-skin antimicrobial Peptide esculentin-1b(1-18) in the presence of differently charged membrane-mimicking micelles” (J Nat Prod, 2014)
